Data on seven compounds can be found in patent US9340577B2, “HLA binding motifs and peptides and their uses” (priority 1992, dated 2016).

pIC50: −log10 of the molar value. No end group written: not given here. Bounds are passed on as bounds.

What all share (experiment): biochemical
One experiment deals with DRB3*0101 (Homo sapiens, UniProt P01903+P79483). It counts as binding.
Another experiment addresses DRB5*0101 (Homo sapiens, UniProt P01903+Q30154). To be noted: Binding affinity DRB5 *0101.
The target in a further experiment is DRB1*1501 (Homo sapiens, UniProt P01903+P01911). The experiment is classed as binding.
The next experiment addresses DRB1*0802 (Homo sapiens, UniProt P01903+P01911, A100R/A103L/A169T/F76Y/H45Y/I96F/K41T/L162R/M171V/P40S/Q125H/Q178H/Q39Y/Q99D/R218S/R42G/S66Y/V115G/W38E). It counts as binding.
In a further experiment the target is DR7 (DRB1*0701) (Homo sapiens, UniProt P01903+P01911, A100R/A102G/A103Q/D57E/D86V/E43K/F76Y/K127E/L162R/M171V/P40G/Q125H/Q99D/R33Q/R42Y/R54Q/S133A/S66F/T210M/V115G/Y107V/Y59L/Y89S). It counts as binding.
Another experiment has as its target DRB1*0901 (Homo sapiens, UniProt P01903+P01911, A100R/A103E/D57H/D86V/F55Y/F60I/F76Y/I96F/K127E/L162R/M171V/P40D/Q125H/Q99R/R33Q/R42F/S133A/S66N/T210M/V115G/W38K/Y107V/Y59G/Y89S). It counts as binding.
A further experiment deals with DRB1*1201 (Homo sapiens, UniProt P01903+P01911, A100R/A169T/D57E/D86V/F55L/H45Y/K41T/L162R/M171V/P40S/Q125H/Q178H/Q39Y/Q99D/R42G/S66L/T262R/V114A/V67L/W38E/Y59H/Y61H/Y89S). It counts as binding.
The next experiment concerns the target DR1 (DRB1*0101) (Homo sapiens, UniProt P01903+P01911, A100R/D57E/F55L/F60I/F76Y/I96L/L162R/M171V/P40L/Q125E/R42F/V115G/Y59C). The experiment is classed as binding.
A further experiment concerns the target DRB1*0405 (Homo sapiens, UniProt P01903+P01911, A100R/A169T/D86S/F76Y/I96L/K127E/L162R/M171V/N62H/P40V/Q125Y/R42H/S133A/S149N/S66Y/V115G/V209L/W38E). The experiment is classed as binding.
A further experiment concerns the target DRB1*1302 (Homo sapiens, UniProt P01903+P01911, A100E/A169T/K41T/L162R/M171V/P40S/Q125H/Q178H/Q39Y/Q99D/R42S/S66N/T262R/V115G/W38E/Y61H). The experiment is classed as binding.
The next experiment addresses DRB1*1101 (Homo sapiens, UniProt P01903+P01911, A100R/A169T/A87E/I96F/K41T/L162R/M171V/P40S/Q125H/Q178H/Q39Y/Q99D/R42S/S66Y/T262R/V115G/W38E). To be noted: Binding affinity DRB1 *1101.
A further experiment has as its target DR4w4 (DRB1*0401) (Homo sapiens, UniProt P01903+P01911, A100K/A169T/F76Y/I96L/K127E/L162R/M171V/N62H/P40V/Q125Y/R42H/S133A/S149N/S66Y/V115G/V209L/W38E). It counts as binding.
Another experiment addresses DRB4*0101 (Homo sapiens, UniProt P01903+P13762, G164S). The experiment is classed as binding.
The next experiment deals with DRB1*0301 (Homo sapiens, UniProt P01903+P01911, A100K/A102G/A103R/A169T/F55Y/I96L/K41T/L162R/M171V/P40S/Q125H/Q178H/Q39Y/R42S/S66N/T106N/T262R/W38E/Y61H). It counts as binding.
Sequence of DRB1*0301 (P01903 26-254 limits assumed, other chains not shown): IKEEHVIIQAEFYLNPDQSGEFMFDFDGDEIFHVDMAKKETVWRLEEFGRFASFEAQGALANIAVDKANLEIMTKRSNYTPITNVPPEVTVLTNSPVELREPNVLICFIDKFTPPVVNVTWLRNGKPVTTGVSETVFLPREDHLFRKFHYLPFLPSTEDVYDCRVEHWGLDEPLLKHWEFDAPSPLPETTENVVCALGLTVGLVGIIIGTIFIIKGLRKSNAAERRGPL

Sequence of DRB1*1101 (P01903 26-254 limits assumed, other chains not shown): as above
Sequence of DRB1*1302 (P01903 26-254 limits assumed, other chains not shown): as above

What is called pIC50 is the IC50 on a negative log10 scale, so that one unit is a factor of ten. Read a low pIC50 as a high IC50. In turn, `CC[C@H](C)[C@H](NC(=O)CNC(=O)[C@H](Cc1ccc(O)cc1)NC(=O)[C@H](CC(C)C)NC(=O)[C@H](CO)NC(=O)[C@H](CC(C)C)NC(=O)[C@H](CC(C)C)NC(=O)[C@H](CO)NC(=O)[C@H](CC(C)C)NC(=O)[C@H](CCC(=O)O)NC(=O)[C@H](CO)NC(=O)[C@H](CC(C)C)NC(=O)[C@H](CCC(=O)O)NC(=O)[C@H](CCCNC(=N)N)NC(=O)[C@@H](N)CC(C)C)C(=O)O` [Peptide 68.0043] had a negative-log IC50 (pIC50) at DRB3*0101 of less than 4.70.

Turning to GEIYIIEEDTCTMVT [Peptide 90.0202], the pIC50 is less than 4.70 on DRB5*0101; less than 4.70 against DRB1*1501; less than 4.70 at DRB1*0802; 5.18 against DR7 (DRB1*0701); less than 4.70 against DRB1*0901; less than 4.70 at DRB1*1201. In addition, the pIC50 against DR1 (DRB1*0101) is 5.80; against DRB1*0405, 5.09; on DRB1*1302, 6.37; at DRB1*1101, less than 4.70; on DR4w4 (DRB1*0401), 6.83; at DRB4*0101, 6.49. Further, the negative-log IC50 (pIC50) against DRB1*0301 is 7.26.

Consider ISEVMGDTPEWIQRL [Peptide 90.0052], for which the pIC50 at DRB5*0101 was less than 4.70; against DRB1*1501, 5.17; against DRB1*0802 it was less than 4.70; against DR7 (DRB1*0701), 5.40; on DRB1*0901 it was less than 4.70; on DRB1*1201 it was less than 4.70. For the same compound, the pIC50 against DR1 (DRB1*0101) was 5.54; against DRB1*0405, 5.39; against DRB1*1302, 8.05; at DRB1*1101, less than 4.70; against DR4w4 (DRB1*0401), less than 4.70; against DRB4*0101 it was 5.69. Moreover, the pIC50 on DRB1*0301 was 7.26.

Consider NGWFYVEAVIDRQTG [Peptide 90.0062], for which the negative logarithm of the IC50 (pIC50) was 6.25 on DRB5*0101; less than 4.70 against DRB1*1501; 5.40 on DRB1*0802; 6.80 at DR7 (DRB1*0701); 6.34 against DRB1*0901; 5.39 against DRB1*1201. Besides, the pIC50 was 6.80 at DR1 (DRB1*0101); 7.92 at DRB1*0405; 5.31 on DRB1*1302; 5.48 at DRB1*1101; 7.16 on DR4w4 (DRB1*0401); 7.85 against DRB4*0101. This compound also showed a pIC50 against DRB1*0301 of 6.62.

Regarding QWAYDNDIVDDSEIA [Peptide 90.0036], the pIC50 on DRB5*0101, on DRB1*1501, on DRB1*0802, against DR7 (DRB1*0701), at DRB1*0901 and against DRB1*1201 was less than 4.70 each time. The negative-log IC50 (pIC50) was less than 4.70 at DR1 (DRB1*0101); 5.37 on DRB1*0405; less than 4.70 at DRB1*1302; less than 4.70 at DRB1*1101; 4.93 against DR4w4 (DRB1*0401); less than 4.70 at DRB4*0101. For the same compound, on DRB1*0301, the negative logarithm of the IC50 (pIC50) is 6.00.

For the compound RLTVAKLMSNLLSIP [Peptide 89.0065], the negative-log IC50 (pIC50) at DRB5*0101 is 6.30; at DRB1*1501, 8.02; against DRB1*0802, 6.32; at DR7 (DRB1*0701) it was 7.35; against DRB1*0901, 6.00; at DRB1*1201, 6.97. Besides, the pIC50 against DR1 (DRB1*0101) is 8.37; against DRB1*0405 it was 7.37; against DRB1*1302, 8.14; at DRB1*1101, 7.21; on DR4w4 (DRB1*0401), 8.21; against DRB4*0101 it was 8.40. Besides, the pIC50 on DRB1*0301 was 5.38.

Take TPEWIQRLTIIQHGI [Peptide 89.0030]: the negative logarithm of the IC50 (pIC50) on DRB5*0101 is 5.23; against DRB1*1501, 4.75; against DRB1*0802, 6.43; on DR7 (DRB1*0701) it was 6.81; against DRB1*0901 it was 5.61; against DRB1*1201, 6.38. The negative logarithm of the IC50 (pIC50) on DR1 (DRB1*0101) was 6.17; against DRB1*0405 it was 6.69; at DRB1*1302, 6.38; at DRB1*1101 it was 6.41; against DR4w4 (DRB1*0401), 6.72; against DRB4*0101, 8.17. Also, the pIC50 against DRB1*0301 was less than 4.70.
